Reference: ChEMBL document CHEMBL1135499, “Further characterization of structural requirements for ligands at the dopamine D(2) and D(3) receptor: exploring the thiophene moiety” (J Med Chem, 2002)

Experiments:
[1] = target: D(3) dopamine receptor (Homo sapiens, UniProt P35462); experiment: biochemical
Description: In vitro binding affinity at human Dopamine receptor D3 expressed in CHO K1 cells was measured by its ability to displace [3H]spiperone

[2] = target: D(2) dopamine receptor (Homo sapiens, UniProt P14416); experiment: biochemical
Description: In vitro binding affinity at human Dopamine receptor D2 expressed in CHO K1 cells was measured by its ability to displace [3H]- N-0437

[3] = Oral bioavailability in rat; assay type: ADME, organism-based; conditions: in vivo

D(3) dopamine receptor, sequence (P35462 whole entry): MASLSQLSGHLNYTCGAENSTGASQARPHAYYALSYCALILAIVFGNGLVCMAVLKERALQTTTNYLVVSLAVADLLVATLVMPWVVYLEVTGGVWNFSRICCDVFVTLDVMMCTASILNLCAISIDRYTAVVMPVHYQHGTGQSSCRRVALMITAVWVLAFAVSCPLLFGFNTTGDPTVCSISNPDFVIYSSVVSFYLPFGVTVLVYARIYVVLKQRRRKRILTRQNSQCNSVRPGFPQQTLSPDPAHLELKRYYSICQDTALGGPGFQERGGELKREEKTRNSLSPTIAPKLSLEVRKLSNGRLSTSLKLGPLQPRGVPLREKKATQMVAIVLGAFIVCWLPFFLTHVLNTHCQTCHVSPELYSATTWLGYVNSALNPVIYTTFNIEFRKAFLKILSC
D(2) dopamine receptor, sequence (P14416 whole entry): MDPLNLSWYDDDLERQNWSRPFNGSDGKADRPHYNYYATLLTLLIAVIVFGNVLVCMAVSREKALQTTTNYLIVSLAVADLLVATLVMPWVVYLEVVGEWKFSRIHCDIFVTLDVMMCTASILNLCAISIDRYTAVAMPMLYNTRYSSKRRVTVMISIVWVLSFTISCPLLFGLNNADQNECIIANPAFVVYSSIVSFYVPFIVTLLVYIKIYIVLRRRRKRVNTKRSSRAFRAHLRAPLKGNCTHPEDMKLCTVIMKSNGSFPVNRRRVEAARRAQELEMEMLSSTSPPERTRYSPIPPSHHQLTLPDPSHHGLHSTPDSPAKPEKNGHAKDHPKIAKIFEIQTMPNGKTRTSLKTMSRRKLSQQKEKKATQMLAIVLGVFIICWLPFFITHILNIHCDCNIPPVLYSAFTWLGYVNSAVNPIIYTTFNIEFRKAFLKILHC

Compound	Ki [1] [µM]	Ki [2] [µM]	bioavailability [3] [%]
CCCN1CC(c2ccccc2)OC2c3cc(O)ccc3CCC21 (racemic)	0.012	0.375	
CCCN(CCC)C1CCc2ccsc2C1 (stereo unspecified)	0.028	0.027	10
c1cc2c(s1)CCC1NCCOC21 (stereo unspecified)	3	> 4.78	
CCCN(CCc1ccsc1)CCc1cccs1	0.117	1.08	
CCCN(CCC)[C@@H]1Cc2cccc(O)c2C[C@H]1C	0.00054	0.014	
CCCN1CCOC2c3ccsc3CCC21 (stereo unspecified)	0.24	0.63	

Now from value to molecule, other results behind:

Ki [1] [µM]	Ki [2] [µM]	Compound	bioavailability [3] [%]
0.247	2.04	CCCN(CCC)CC1CCc2sccc2C1 (stereo unspecified)	
1.57	> 3.68	Oc1ccc2c(c1)C1OCCN(CCc3ccccc3)C1CC2 (racemic)	
0.108	0.439	CCCN(CCc1ccsc1)CCc1ccsc1	
0.04	0.02	CCCN(CCC)C1CCc2sccc2C1 (stereo unspecified)	> 10
0.083	3.68	Oc1ccc2c(c1)C1OCCN(CCc3cccs3)C1CC2 (racemic)	
0.06	3.11	CCCN(CCC)CC1CCc2ccsc2C1 (stereo unspecified)	
